# Source: US20260151457A1, “Peptides and Fragments for Treating Diabetes and Associated Metabolic Diseases” (Betavive Ltd., priority 2024, published 2026)
# Legend:
# Human pancreatic islets = experiment: Peptides efficacy on human pancreatic islets (IHC, digital quantitative pathological analysis); type: cell-based; settings: IGF-2 500 nM, Peptide-20 1000 nM, five days
# Method: Human pancreatic islets, obtained from Prodo Labs, were cultured in Prodo Labs PIM(S) media and maintained at 37° C. with 5% CO2 to ensure optimal viability. The islets were treated with IGF-2 (500 nM) and Peptide-20 (1000 nM) for five days under continuous exposure. After treatment, islets were collected and fixed in 4% paraformaldehyde (PFA) to preserve cellular and structural integrity. The samples were then processed for formalin-fixed paraffin-embedded (FFPE) histology. Sectioned islets were stained using immunohistochemistry (IHC) with specific markers to assess islet integrity, β-cell function, and proliferation. Microscopic Digital Quantitative Pathological Analysis provided critical insights into the effects of IGF-2 and Peptide-20 on islet structure and function. […] These findings establish Peptide-20 as a strong candidate for novel diabetes therapies aimed at restoring islet function and reversing β-cell loss. […] Their ability to enhance β-cell survival and proliferation positions them as strong candidates for the development of novel regenerative therapies, paving the way for innovative drug development aimed at reversing diabetes and restoring endogenous insulin production.
# NOD mice = experiment: Islet cell staining for glucagon and insulin in NOD mice; type: in vivo; settings: NOD mice treated with IGF-2 for 13 weeks
# Excerpt: FIG. 30D confirms the results shown in FIG. 30C and provides the number of cells staining positive for insulin in NOD mice treated with IGF-2 (right bar) versus untreated NOD mice (left bar).
# [1] = Blood concentration of IGF-2 after 40 μg intraperitoneal injection (ELISA); type: in vivo, mouse; settings: 240 minute time frame
# Excerpt: Without being bound by this theory, it is believed that IGF-2 binding proteins may initially inactivate the biological activity of free IGF-2. And over time, the bond between IGF-2 and the binding protein may be released, increasing the bioavailability of IGF-2 and leading to a longer term effective treatment.
# STZ-treated mice [2] = experiment: Serum insulin and c-peptide levels in STZ-treated mice four weeks after IGF-2 treatment; type: in vivo; settings: four weeks post treatment
# Method: Fasting blood glucose levels (mg/dL) were determined using the Accu-Chek Performa glucometer (Roche Diagnostics, Mannheim, Germany). After approximately two weeks of stable hyperglycemia, C57BL/6 STZ mice received exogenous injections of recombinant human IGF-2 (0.3-12 mg/kg/day injection) intraperitoneally for 5-10 consecutive days. During post-treatment follow-up period and upon termination, mice were tested for: fasting glucose, body weight, glucose tolerance test (IPGTT), serum C-peptide level, serum insulin level, and full blood and histological analysis (CBC, Chemistry, Insulin IHC and H&E).
# C-peptide is a biomarker used to assess pancreatic beta cell function and is normally produced in equimolar amounts to endogenous insulin. Leighton et al., A Practical Review of C-Peptide Testing in Diabetes, Diabetes Ther. 2017 June; 8 (3): 475-487.
# [3] = system: human pancreatic islet cells; experiment: Insulin secretion of human pancreatic islet cells in response to a glucose pulse; type: cell-based; settings: IGF-2 50 nM for four days
# [4] = Safety/toxicity: pathology of blood samples and tissue samples from thirty organs; type: in vivo; settings: end of 10 days of treatment, 24 days after termination, and 100 days after termination of 30 days of treatment
# β-MIN6 cells = experiment: Insulin secretion of β-MIN6 cells following glucose induction; type: cell-based, mouse; settings: IGF-2 5 nM, 20 nM, 80 nM, 1 week treatment
# Excerpt: β-MIN6 cells serve as an in vitro model of mouse pancreatic islets. β-MIN6 cells were used as an in vitro model to measure the effects of treatment with IGF-2.
# STZ-treated mouse islets = experiment: MTT viability of STZ-treated mouse islets; type: cell-based; settings: increasing concentrations
# Excerpt: Yellow dye MTT is converted to a purple dye by mitochondrial reductase in viable cells. Therefore, the amount of purple dye present determined by measuring optical density of cells at 570 nm serves as a measurement of cell viability.
# STZ-treated mice [5] = experiment: Short term effects of a single IGF-2 injection on glucose and IGF-2 levels in STZ-treated mice; type: in vivo
# Method: More specifically, the top panel illustrates the drop in glucose blood levels in three STZ-treated mice after receiving a 800 μg/kg/day dose of IGF-2 over a 240 minute time course. […] IGF-2 is part of a complex system comprising IGF-1 and IGF-2 along with binding proteins, proteases and other interacting molecules. A single 800 μg/kg dose of IGF-2 injected intraperitoneally lowers hyperglycemic blood glucose levels of 300-500 mg/dl to a normal level (100-200 mg/dL) for periods of over four hours. Normoglycemia is maintained while total serum IGF-2 is reduced to very low levels. […] Without being bound by this theory, it is believed that a slow release of IGF-2 from a serum complex can maintain normal blood glucose levels.
# db/db mice = experiment: 14 hour fasting blood glucose in db/db mice treated with IGF-2; type: in vivo
# Method: db/db mice are bred to have a leptin deficiency, increasing susceptibility of the mice to obesity, insulin resistance, and type 2 diabetes (T2D).
# In this experiment, one group of db/db mice was injected with 3000 μg/kg/day of IGF-2 for 68 days, a second group of db/db mice was injected with 12000 μg/kg/day of IGF-2 for 66 days, and a third group of db/db mice was injected with saline once a day for 68 days.
# In one experiment (left panel), one group of db/db mice was injected with a daily dose of 12000 μg/kg of IGF-2 divided in two injections per day for 70 days, while another group of db/db mice was injected with saline. […] In another experiment (right panel), one group of db/db mice was injected with a daily dose of 12000 μg/kg of IGF-2 divided in two injections per day for 35 days, while another group of db/db mice was injected with saline.
# In one exemplary experiment, db/db mice were treated with a 12,000 μg/kg daily dose for 70 days with 70 days of follow up (during which IGF-2 was not administered). All the treated mice maintained normoglycemia for at least 50 days following treatment. In another exemplary experiment, db/db mice were treated with a 12,000 μg/kg daily dose for 35 days with 35 days of follow up (during which IGF-2 was not administered). All the treated mice maintained normoglycemia for 35 days following treatment.
# [6] = single 800 μg/kg dose injected intraperitoneally
substance,measurement,setting,value
insulin-like growth factor 2 [IGF-2],"Pancreatic islet regeneration, integrity and function",Human pancreatic islets,significant regenerative potential
same,Islet cells (histological staining for glucagon and insulin),NOD mice,fully functional islet cells
same,Free IGF-2 in the blood (peak),[1],1 µg
same,Peak total concentration of IGF-2 in the blood,[1],about 16 μg
same,Increase in c-peptide levels,STZ-treated mice [2]; four STZ-treated mice,12 fold
same,Increase in serum insulin compared to STZ treated control mice,STZ-treated mice [2]; permanently cured mice,50%
same,Increase in insulin secretion in response to a glucose pulse compared to untreated cells,[3],~50%
same,Pathologies related to treatment in blood samples and tissue samples from thirty organs,[4],No pathologies were identified
same,Insulin secretion following glucose induction,β-MIN6 cells,increases insulin secretion (following glucose induction) in a dose-dependent manner
same,"Mouse islet viability (MTT, optical density at 570 nm)",STZ-treated mouse islets,increased in a dose dependent manner
same,Free IGF-2 levels relative to total IGF-2,"STZ-treated mice [5]; 800 μg/kg dose, 240 minute time course",a small fraction of the total IGF-2 concentration
same,Blood glucose level reached from hyperglycemic 300-500 mg/dl,STZ-treated mice [5]; [6],100 to 200 mg/dL
same,Period of normal blood glucose level after a single dose,STZ-treated mice [5]; [6],over four
same,14 hour fasting blood glucose levels,"db/db mice; 3000 μg/kg/day for 68 days, first group b178, second group b179",reduced blood glucose levels (14 hour fasting blood glucose levels) to a normal range even after the end of the 68 day treatment period
same,Time all treated mice maintained normoglycemia following treatment,"db/db mice; 12,000 μg/kg daily for 35 days, 35 days of follow up",35 days
same,Time all treated mice maintained normoglycemia following treatment,"db/db mice; 12,000 μg/kg daily for 70 days, 70 days of follow up",at least 50 days
same,14 hour fasting blood glucose levels,db/db mice; 12000 μg/kg daily in two injections per day for 35 days,reduced blood glucose levels (14 hour fasting blood glucose levels) to a normal range even after the end of the 35 day treatment period
same,14 hour fasting blood glucose levels,db/db mice; 12000 μg/kg daily in two injections per day for 70 days,reduced blood glucose levels (14 hour fasting blood glucose levels) to a normal range even after the end of the 70 day treatment period
same,14 hour fasting blood glucose levels,"db/db mice; 12000 μg/kg/day for 66-68 days, first group b178, second group b179",reduced blood glucose levels (14 hour fasting blood glucose levels) to a normal range even after the end of the 68 day treatment period
